Measurements taken from ChEMBL document CHEMBL1131906, “Synthesis and structure-activity relationships of new second-generation taxoids” (Bioorg Med Chem Lett, 1999).

Assays:
[1] = Inhibitory activity against the growth of LCC6-WT (human breast carcinoma) cell line after 72 hours of drug exposure; type: functional
[2] = Inhibitory activity against the growth of LCC6-MDR (Multi Drug Resistant 1 transduced line) cell line after 72 hours of drug exposure; type: functional; settings: Homo sapiens, LCC6MDR
MCF7 [3] = experiment: Inhibitory activity against the growth of MCF-7R ( multi drug resistant human breast carcinoma) cell line after 72 hours of drug exposure; type: functional, cell-based; settings: MCF7, 72 h
MCF7 [4] = experiment: Inhibitory activity against the growth of MCF-7 (human breast carcinoma) cell line after 72 hours of drug exposure; type: functional, cell-based; settings: MCF7, 72 h
MCF7 [5] = experiment: Ratio of activities, drug resistant (R) to drug sensitive (S) carcinoma cell lines; type: functional, Homo sapiens

IC50 (MCF7 [3]) [nM]	IC50 (MCF7 [4]) [nM]	SMILES	IC50 [1] [nM]	IC50 [2] [nM]	Ratio (MCF7 [5])
–	–	CC(=O)O[C@H]1C(=O)[C@@]2(C)[C@H]([C@H](OC(=O)c3ccccc3)[C@]3(O)C[C@H](OC(=O)[C@H](O)[C@@H](NC(=O)c4ccccc4)c4ccccc4)C(C)=C1C3(C)C)[C@]1(OC(C)=O)CO[C@@H]1C[C@@H]2O [PACLITAXEL]	3.1	346	–
2.3	0.8	COc1cccc(C(=O)O[C@H]2C3[C@](C)(C(=O)[C@H](OC(C)=O)C4=C(C)[C@@H](OC(=O)[C@H](O)[C@H](C=C(C)C)NC(=O)OC(C)(C)C)C[C@]2(O)C4(C)C)[C@@H](O)C[C@H]2OC[C@@]32OC(C)=O)c1 (some centres undefined)	0.6	–	–
–	–	CCC(=O)O[C@H]1C(=O)[C@@]2(C)C([C@H](OC(=O)c3cccc(F)c3)[C@]3(O)C[C@H](OC(=O)[C@H](O)[C@H](CC(C)C)NC(=O)OC(C)(C)C)C(C)=C1C3(C)C)[C@]1(OC(C)=O)CO[C@@H]1C[C@@H]2O (some centres undefined)	0.4	–	–
–	–	C=Cc1cccc(C(=O)O[C@H]2C3[C@](C)(C(=O)[C@H](OC(=O)CC)C4=C(C)[C@@H](OC(=O)[C@H](O)[C@H](C=C(C)C)NC(=O)OC(C)(C)C)C[C@]2(O)C4(C)C)[C@@H](O)C[C@H]2OC[C@@]32OC(C)=O)c1 (some centres undefined)	2.9	–	–
2.1	1	CCC(=O)O[C@H]1C(=O)[C@@]2(C)C([C@H](OC(=O)c3cccc(N=[N+]=[N-])c3)[C@]3(O)C[C@H](OC(=O)[C@H](O)[C@H](CC(C)C)NC(=O)OC(C)(C)C)C(C)=C1C3(C)C)[C@]1(OC(C)=O)CO[C@@H]1C[C@@H]2O (some centres undefined)	1.1	–	–
–	–	CCC(=O)O[C@H]1C(=O)[C@@]2(C)C([C@H](OC(=O)c3cccc(F)c3)[C@]3(O)C[C@H](OC(=O)[C@H](O)[C@H](C=C(C)C)NC(=O)OC(C)(C)C)C(C)=C1C3(C)C)[C@]1(OC(C)=O)CO[C@@H]1C[C@@H]2O (some centres undefined)	0.5	–	–
–	–	COc1cccc(C(=O)O[C@H]2C3[C@](C)(C(=O)[C@H](OC(=O)C4CC4)C4=C(C)[C@@H](OC(=O)[C@H](O)[C@H](C=C(C)C)NC(=O)OC(C)(C)C)C[C@]2(O)C4(C)C)[C@@H](O)C[C@H]2OC[C@@]32OC(C)=O)c1 (some centres undefined)	1	2.9	2.9
–	–	C/C=C\[C@H](NC(=O)OC(C)(C)C)[C@@H](O)C(=O)O[C@H]1C[C@@]2(O)[C@@H](OC(=O)c3cccc(OC)c3)C3[C@](C)(C(=O)[C@H](OC(=O)CC)C(=C1C)C2(C)C)[C@@H](O)C[C@H]1OC[C@@]31OC(C)=O (some centres undefined)	1.2	–	–
–	–	CCC(=O)O[C@H]1C(=O)[C@@]2(C)C([C@H](OC(=O)c3cccc(Cl)c3)[C@]3(O)C[C@H](OC(=O)[C@H](O)[C@H](C=C(C)C)NC(=O)OC(C)(C)C)C(C)=C1C3(C)C)[C@]1(OC(C)=O)CO[C@@H]1C[C@@H]2O (some centres undefined)	0.8	–	–
1.1	0.9	CCC(=O)O[C@H]1C(=O)[C@@]2(C)C([C@H](OC(=O)c3cccc(N=[N+]=[N-])c3)[C@]3(O)C[C@H](OC(=O)[C@H](O)[C@H](C=C(C)C)NC(=O)OC(C)(C)C)C(C)=C1C3(C)C)[C@]1(OC(C)=O)CO[C@@H]1C[C@@H]2O (some centres undefined)	0.9	–	–
1.5	0.6	CCC(=O)O[C@H]1C(=O)[C@@]2(C)C([C@H](OC(=O)c3cccc(OC)c3)[C@]3(O)C[C@H](OC(=O)[C@H](O)[C@@H](NC(=O)OC(C)(C)C)[C@H]4CC4(C)C)C(C)=C1C3(C)C)[C@]1(OC(C)=O)CO[C@@H]1C[C@@H]2O (some centres undefined)	0.48	–	–
7.7	2	C=CCC[C@H](NC(=O)OC(C)(C)C)[C@@H](O)C(=O)O[C@H]1C[C@@]2(O)[C@@H](OC(=O)c3cccc(OC)c3)C3[C@](C)(C(=O)[C@H](OC(=O)CC)C(=C1C)C2(C)C)[C@@H](O)C[C@H]1OC[C@@]31OC(C)=O (some centres undefined)	0.9	–	–
–	–	CC(=O)O[C@@]12CO[C@@H]1C[C@H](O)[C@@]1(C)C(=O)[C@H](O)C3=C(C)[C@@H](OC(=O)[C@H](O)[C@@H](NC(=O)OC(C)(C)C)c4ccccc4)C[C@@](O)([C@@H](OC(=O)c4ccccc4)[C@H]21)C3(C)C.O.O.O [DOCETAXEL]	1	120	–
4.3	0.4	CCC(=O)O[C@H]1C(=O)[C@@]2(C)C([C@H](OC(=O)c3cccc(OC)c3)[C@]3(O)C[C@H](OC(=O)[C@H](O)[C@@H](NC(=O)OC(C)(C)C)C(F)F)C(C)=C1C3(C)C)[C@]1(OC(C)=O)CO[C@@H]1C[C@@H]2O (some centres undefined)	1.5	–	–
8.7	0.8	C=CC[C@H](NC(=O)OC(C)(C)C)[C@@H](O)C(=O)O[C@H]1C[C@@]2(O)[C@@H](OC(=O)c3cccc(OC)c3)C3[C@](C)(C(=O)[C@H](OC(=O)CC)C(=C1C)C2(C)C)[C@@H](O)C[C@H]1OC[C@@]31OC(C)=O (some centres undefined)	1.2	–	–
5	0.8	CC(=O)O[C@H]1C(=O)[C@@]2(C)C([C@H](OC(=O)c3cccc(C)c3)[C@]3(O)C[C@H](OC(=O)[C@H](O)[C@H](C=C(C)C)NC(=O)OC(C)(C)C)C(C)=C1C3(C)C)[C@]1(OC(C)=O)CO[C@@H]1C[C@@H]2O (some centres undefined)	1.5	–	–

SMILES	IC50 (MCF7 [3]) [nM]	IC50 (MCF7 [4]) [nM]	IC50 [1] [nM]	IC50 [2] [nM]	Ratio (MCF7 [5])
CCC(=O)O[C@H]1C(=O)[C@@]2(C)C([C@H](OC(=O)c3cccc(OC)c3)[C@]3(O)C[C@H](OC(=O)[C@H](O)[C@H](C=C(C)C)NC(=O)OC(C)(C)C)C(C)=C1C3(C)C)[C@]1(OC(C)=O)CO[C@@H]1C[C@@H]2O (some centres undefined)	0.33	0.36	1	–	–
